Reference: the NIST ThermoML archive (doi:10.1021/je0502344)

How the values were obtained:
[1] = xn = mol fraction of the nth substance listed; settings: 101.33 kPa, Liquid
[2] = 101.33 kPa, Liquid

CCCCCC=O [hexanal] + CCO
[1]
Settings | mass density, 298.15 K [kg/m3] | mass density, 308.15 K [kg/m3] | mass density, 318.15 K [kg/m3] | viscosity, 298.15 K [mPa·s] | viscosity, 308.15 K [mPa·s] | viscosity, 318.15 K [mPa·s]
x1 = 0.1094 | 788 | 780.57 | 766.36 | 1.053 | 0.875 | 0.752
x1 = 0.2049 | 791.01 | 783.13 | 768.9 | 1.023 | 0.857 | 0.739
x1 = 0.3226 | 795.33 | 786.81 | 772.53 | 0.987 | 0.834 | 0.723
x1 = 0.4037 | 798.69 | 789.67 | 775.36 | 0.963 | 0.819 | 0.712
x1 = 0.5027 | 803.22 | 793.52 | 779.17 | 0.935 | 0.801 | 0.7
x1 = 0.6207 | 809.24 | 798.64 | 784.23 | 0.902 | 0.78 | 0.685
x1 = 0.7108 | 814.29 | 802.93 | 788.47 | 0.878 | 0.764 | 0.674
x1 = 0.81 | 820.3 | 808.04 | 793.53 | 0.852 | 0.747 | 0.662
x1 = 0.9226 | 827.69 | 814.32 | 799.74 | 0.824 | 0.729 | 0.648
x1 = 1 | 833.12 | 818.94 | 804.31 | 0.805 | 0.716 | 0.639

CCCCCCCCCC=O [decanal] + CCO
[1]
Settings | mass density, 298.15 K [kg/m3] | mass density, 308.15 K [kg/m3] | mass density, 318.15 K [kg/m3] | viscosity, 298.15 K [mPa·s] | viscosity, 308.15 K [mPa·s] | viscosity, 318.15 K [mPa·s]
x1 = 0.1011 | 785.98 | 778.7 | 764.59 | 1.128 | 0.939 | 0.808
x1 = 0.2102 | 787.14 | 779.48 | 765.47 | 1.174 | 0.987 | 0.854
x1 = 0.3013 | 788.25 | 780.24 | 766.32 | 1.213 | 1.028 | 0.895
x1 = 0.412 | 789.78 | 781.28 | 767.48 | 1.262 | 1.081 | 0.947
x1 = 0.5105 | 791.31 | 782.32 | 768.64 | 1.308 | 1.131 | 0.997
x1 = 0.5836 | 792.55 | 783.15 | 769.58 | 1.343 | 1.169 | 1.035
x1 = 0.6889 | 794.48 | 784.47 | 771.05 | 1.395 | 1.226 | 1.092
x1 = 0.8008 | 796.73 | 785.99 | 772.76 | 1.452 | 1.29 | 1.157
x1 = 0.9145 | 799.23 | 787.68 | 774.65 | 1.513 | 1.358 | 1.226
x1 = 1 | 801.24 | 789.05 | 776.18 | 1.56 | 1.412 | 1.281

CCCCCC=O [hexanal]
[2]
Settings | mass density [kg/m3] | viscosity [mPa·s]
298.15 K | 833.12 | 0.805
308.15 K | 818.94 | 0.716
318.15 K | 804.31 | 0.639

CCO [ethanol] + CCCCCC=O
[1], x2 = 0
Settings | mass density [kg/m3] | viscosity [mPa·s]
298.15 K | 785.08 | 1.088
308.15 K | 778.09 | 0.897
318.15 K | 763.91 | 0.767

CCCCCCCCCC=O [decanal]
[2]
Settings | mass density [kg/m3] | viscosity [mPa·s]
298.15 K | 801.24 | 1.56
308.15 K | 789.05 | 1.412
318.15 K | 776.18 | 1.281

CCO [ethanol] + CCCCCCCCC=O
[1], x2 = 0
Settings | mass density [kg/m3] | viscosity [mPa·s]
298.15 K | 785.08 | 1.088
308.15 K | 778.09 | 0.897
318.15 K | 763.91 | 0.767

CCCCCCCC=O [octanal]
[2]
Settings | mass density [kg/m3] | viscosity [mPa·s]
298.15 K | 821.07 | 1.2
308.15 K | 807.34 | 1.074
318.15 K | 793.85 | 0.965

CCCCCCCCC=O [nonanal]
[2]
Settings | mass density [kg/m3] | viscosity [mPa·s]
298.15 K | 831.04 | 1.392
308.15 K | 818.01 | 1.251
318.15 K | 804.72 | 1.127

CCO [ethanol] + CCCCCCCC=O
[1], x2 = 0
Settings | mass density [kg/m3] | viscosity [mPa·s]
298.15 K | 785.08 | 1.088
308.15 K | 778.09 | 0.897
318.15 K | 763.91 | 0.767

CCO [ethanol]
[2]
Settings | mass density [kg/m3] | viscosity [mPa·s]
298.15 K | 785.08 | 1.088
308.15 K | 778.09 | 0.897
318.15 K | 763.91 | 0.767
